{"source": "patent US12318421B2", "about": "(priority 2020, dated 2025)", "origin": "cited, not measured here", "molecular_target": "α-glucosidase", "conditions": "values disclosed in references"}
{"molecule": "O=c1cc(-c2ccc(O)cc2)oc2cc(O)c([C@@H]3O[C@H](CO)[C@@H](O)[C@H](O)[C@H]3O)c(O)c12", "note": "[isovitexin]", "values": [{"measurement": "IC50 of α-glucosidase activity disclosed in references", "value": 46.9, "unit": "µg/mL"}]}
